Measurements reported in patent publication US6548494B1, “Tricyclic inhibitors of poly(ADP-ribose) polymerases” (Agouron Pharmaceuticals, Inc., priority 1999, dated 2003).
Where “and” joins values, the source holds several entries; their conditions need not be identical. Equal values may be shown once. Where a name gives a salt, the structure may show the parent alone.

What follows are compounds tested against purified PARP protein (Homo sapiens, UniProt P09874) (assay: PARP enzyme inhibition assay). Settings: 20 nM purified PARP (5 nM for tight-binding inhibitors), 500 μM NAD+, 25° C.; several values in one cell = repeat determinations; read-out: Inhibition Constant Ki.
Assay type: biochemical

purified PARP protein, sequence (P09874 whole entry): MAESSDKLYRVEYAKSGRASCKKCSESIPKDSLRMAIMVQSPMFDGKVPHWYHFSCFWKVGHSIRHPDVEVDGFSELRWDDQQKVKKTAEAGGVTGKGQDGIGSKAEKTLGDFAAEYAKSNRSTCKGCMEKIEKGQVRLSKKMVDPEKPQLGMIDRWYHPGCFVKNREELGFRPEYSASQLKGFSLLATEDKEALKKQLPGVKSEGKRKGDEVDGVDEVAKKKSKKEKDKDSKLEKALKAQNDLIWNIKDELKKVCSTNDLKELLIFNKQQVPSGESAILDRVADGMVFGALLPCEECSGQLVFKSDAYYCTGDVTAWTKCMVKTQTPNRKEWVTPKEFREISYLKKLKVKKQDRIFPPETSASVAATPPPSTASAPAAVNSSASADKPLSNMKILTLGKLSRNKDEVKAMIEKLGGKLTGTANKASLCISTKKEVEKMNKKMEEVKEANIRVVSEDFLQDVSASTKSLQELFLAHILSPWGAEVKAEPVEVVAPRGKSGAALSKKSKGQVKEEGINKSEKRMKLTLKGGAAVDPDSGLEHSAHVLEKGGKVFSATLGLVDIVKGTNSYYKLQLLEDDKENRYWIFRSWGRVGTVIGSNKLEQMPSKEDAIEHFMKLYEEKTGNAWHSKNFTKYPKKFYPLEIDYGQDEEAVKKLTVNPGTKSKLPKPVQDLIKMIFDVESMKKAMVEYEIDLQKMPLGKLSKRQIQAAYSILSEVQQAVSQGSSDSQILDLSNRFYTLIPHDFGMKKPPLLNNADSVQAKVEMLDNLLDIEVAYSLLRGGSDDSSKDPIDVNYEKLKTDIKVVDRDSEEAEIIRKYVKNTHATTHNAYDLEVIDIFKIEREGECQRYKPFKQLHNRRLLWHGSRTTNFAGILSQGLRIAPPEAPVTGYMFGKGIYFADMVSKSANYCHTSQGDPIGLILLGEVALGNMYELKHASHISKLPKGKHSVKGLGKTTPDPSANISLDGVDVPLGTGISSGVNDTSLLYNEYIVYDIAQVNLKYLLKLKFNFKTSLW

| Compound | Ki |
| --- | --- |
| COc1ccc(C2CNC(=O)c3cccc4[nH]c(=O)n2c34)cc1 (racemic) [Example 53, (RS)-(±)-9-(4-Methoxy-phenyl)-8,9-dihydro-2H,7H-2,7,9a-triaza-benzo[cd]azulene-1,6-dione] | 1800 nM |
| COc1ccc(C2CNC(=O)c3cccc4nc(-c5ccc(Cl)cc5)n2c34)cc1 (racemic) [Example 54, (RS)-(±)-1-(4-Chloro-phenyl)-9-(4-methoxy-phenyl)-8,9-dihydro-7H-2,7,9a-triaza-benzo[cd]azulen-6-one] | 600 nM |
| O=C1NCCn2c(-c3ccco3)nc3cccc1c32 [Example 20, 1-Furan-2-yl-8,9-dihydro-7H-2,7,9a-triaza-benzo[cd]azulen-6-one] | 11.9 nM |
| O=C1NCCn2c(Cc3ccccc3)nc3cccc1c32 [Example 21, 1-Benzyl-8,9-dihydro-7H-2,7,9a-triaza-benzo[cd]azulen-6-one] | 13.7 nM and 13 nM |
| O=C1NCCn2c(C3CCCCC3)nc3cccc1c32 [Example 24, 1-Cyclohexyl-8,9-dihydro-7H-2,7,9a-triaza-benzo[cd]azulen-6-one] | 29 nM |
| O=C1NCCn2c(S)nc3cccc1c32 [Example 28, 1-Mercapto-8,9-dihydro-7H-2,7,9a-triaza-benzo[cd]azulen-6-one] | 10 nM |
| O=C1NCCn2c(-c3ccccc3)cc3cccc1c32 [Example 33, 6-Phenyl-3,4-dihydro-2H-[1,4]diazepino[6,7,1-hi]indol-1-one] | 14.3 nM |
| O=Cc1c(-c2ccc(Cl)cc2)n2c3c(cccc13)C(=O)NCC2 [Example 38, 6-(4-Chloro-phenyl)-1-oxo-1,2,3,4-tetrahydro-[1,4]diazepino[6,7,1-hi]indole-7-carboxaldehyde] | 43 nM |
| O=C1NCCN2CCc3cccc1c32 [Example 41, 3,4,6,7-Tetrahydro-2H-[1,4]diazepino[6,7,1-hi]indol-1-one, reference compound] | 54 nM and 60 nM |
| COC(=O)c1cn2c3c(cccc13)C(=O)NCC2 [Example 44] | 900 nM |
| O=Cc1cn2c3c(cccc13)C(=O)NCC2 [Example 45, 1-Oxo-1,2,3,4-tetrahydro-[1,4]diazepino[6,7,1-hi]indole-7-carbaldehyde] | 167 nM and 185 nM |
| Cc1cn2c3c(cccc13)C(=O)NCC2 [Example 49, 7-Methyl-3,4-dihydro-2H-[1,4]diazepino[6,7,1-hi]indol-1-one] | 122 nM |
| Cc1c(-c2cccc(C(F)(F)F)c2)n2c3c(cccc13)C(=O)NCC2 [Example 52, 6-(3-Trifluoromethyl-phenyl)-7-methyl-3,4-dihydro-2H-[1,4]diazepino[6,7,1-hi]indol-1-one] | 79 nM |
| O=C1NCCn2c(-c3ccc(CO)cc3)nc3cccc1c32 [Example 58a, 1-(4-hydroxymethyl-phenyl)-8,9-dihydro-7H-2,7,9a-triaza-benzo[cd]azulen-6-one] | 4.2 nM |
| O=C1NCCn2c(-c3ccc(-c4ccc(Cl)cc4)o3)nc3cccc1c32 [Example 96, 1-[5-(4-Chlorophenyl)-furan-2-yl]-8,9-dihydro-7H-2,7,9a-triaza-benzo[cd]azulen-6-one] | 10 nM |
| CN(C)CCCOc1ccc(-c2nc3cccc4c3n2CCNC4=O)cc1 [Example 121, 1-[4-(3-Dimethylamino-propoxy)-phenyl]-8,9-dihydro-7H-2,7,9a-triaza-benzo[cd]azulen-6-one] | 4 nM |
| C[N+](C)([O-])Cc1ccc(-c2nc3cccc4c3n2CCNC4=O)cc1 [Example 131] | 22 nM |
| CC(C)(C)OC(=O)N1CCCC(c2ccc(-c3nc4cccc5c4n3CCNC5=O)cc2)C1 (stereo not drawn) [Example 143, 3-[4-(6-oxo-6,7,8,9-Tetrahydro-2,7,9a-triaza-benzo[cd]azulen-1-yl)-phenyl]-piperidine-1-carboxylic Acid t-Butyl Ester] | 22 nM |
| Nc1nc2cccc3c2n1CCNC3=O [Example 146, 1-Amino-8,9-dihydro-7H-2,7,9a-triaza-benzo[cd]azulen-6-one Hydrochloride] | 35 nM |
| O=C1NCCn2c(-c3ccc(C4CCCCN4CC4CC4)cc3)nc3cccc1c32 (stereo not drawn) [Example 150, 1-[4-(1-Cyclopropylmethyl-piperidin-2-yl)-phenyl]-8,9-dihydro-7H-2,7,9a-triaza-benzo[cd]azulen-6-one] | 5 nM |
| N/N=C(\N)c1c(-c2ccc(F)cc2)n2c3c(cccc13)C(=O)NCC2 [Example 156, 7-Formyl-6-(4-fluorophenyl)-1-oxo-3,4-dihydro-[1,4]diazepino[6,7,1-hi]indole Amidrazone Hydrochloride] | 57 nM |

| Compound | Ki |
| --- | --- |
| O=C1NCCn2c(-c3ccc(CN4CCC(O)C4)cc3)nc3cc(F)cc1c32 (stereo not drawn) [Example 172, 4-Fluoro-1-[4-(3-hydroxy-pyrrolidin-1-ylmethyl)-phenyl]-8,9-dihydro-7H-2,7,9a-triaza-benzo[cd]azulen-6-one] | 4.6 nM |
| O=C1NCCn2c(-c3ccc(CN4CCC[C@@H]4CO)cc3)nc3cccc1c32 [Example 173, 1-[4-((2R)-2-Hydroxymethyl-pyrrolidin-1-ylmethyl)-phenyl]-8,9-dihydro-7H-2,7,9a-triaza-benzo[cd]azulen-6-one] | 6.3 nM |
| O=C1NCCn2c(-c3ccc(CN4CCCC(CO)C4)cc3)nc3cccc1c32 (stereo not drawn) [Example 175, 1-[4-(3-Hydroxymethyl-piperidin-1-ylmethyl)-phenyl]-8,9-dihydro-7H-2,7,9a-triaza-benzo[cd]azulen-6-one] | 6.6 nM |
| CN(Cc1ccc(-c2nc3cccc4c3n2CCNC4=O)cc1)CC(O)CO (stereo not drawn) [Example 176, 1-(4-{[(2,3-Dihydroxy-propyl)-methyl-amino]-methyl}-phenyl)-8,9-dihydro-7H-2,7,9a-triaza-benzo[cd]azulen-6-one] | 9 nM |
| C=CCN1CCN(Cc2ccc(-c3nc4cccc5c4n3CCNC5=O)cc2)CC1 [Example 178, 1-[4-(4-Allyl-piperazin-1-ylmethyl)-phenyl]-2,7,8,9-tetrahydro-2,7,9a-triaza-benzo[cd]azulen-6-one] | 12 nM |
| CN(CCc1ccccc1)Cc1ccc(-c2nc3cccc4c3n2CCNC4=O)cc1 [Example 179, 1-{4-[(Methyl-phenethyl-amino)-methyl]-phenyl}-2,7,8,9-tetrahydro-2,7,9a-triaza-benzo[cd]azulen-6-one] | 5.6 nM |
| CCCCN(CCO)Cc1ccc(-c2nc3cccc4c3n2CCNC4=O)cc1 [Example 180, 1-(4-{[Butyl-(2-hydroxy-ethyl)-amino]-methyl}-phenyl)-2,7,8,9-tetrahydro-2,7,9a-triaza-benzo[cd]azulen-6-one] | 7.4 nM |
| O=C1NCCn2c(-c3ccc(CN4CCC[C@H]4CO)cc3)nc3cccc1c32 [Example 181, 1-[4-((2S)-2-Hydroxymethyl-pyrrolidin-1-ylmethyl)-phenyl]-2,7,8,9-tetrahydro-2,7,9a-triaza-benzo[cd]azulen-6-one] | 3.9 nM |
| O=C1NCCn2c(-c3ccc(CN4CC=CCC4)cc3)nc3cccc1c32 [Example 182, 1-[4-(3,6-Dihydro-2H-pyridin-1-ylmethyl)-phenyl]-2,7,8,9-tetrahydro-2,7,9a-triaza-benzo[cd]azulen-6-one] | 4.7 nM |
| O=C1NCCn2c(-c3ccc(CNCCc4ccccc4)cc3)nc3cccc1c32 [Example 183, 1-[4-(Phenethylamino-methyl)-phenyl]-2,7,8,9-tetrahydro-2,7a-triaza-benzo[cd]azulen-6-one] | 8 nM |
| O=C1NCCn2c(-c3ccc(CNCCc4ccc(F)cc4)cc3)nc3cccc1c32 [Example 185, 1-(4-{[2-(4-Fluoro-phenyl)-ethylamino]-methyl}-phenyl)-2,7,8,9-tetrahydro-2,7,9a-triaza-benzo[cd]azulen-6-one] | 5.6 nM |
| CC(C)CN(C)Cc1ccc(-c2nc3cccc4c3n2CCNC4=O)cc1 [Example 187, 1-{4-[(Isobutyl-methyl-amino)-methyl]-phenyl}-8,9-dihydro-7H-2,7,9a-triaza-benzo[cd]azulen-6-one] | 7 nM |
| O=C1NCCn2c(-c3ccc(CNC4CCC4)cc3)nc3cccc1c32 [Example 188, 1-(4-Cyclobutylaminomethyl-phenyl)-8,9-dihydro-7H-2,7,9a-triaza-benzo[cd]azulen-6-one] | 4.8 nM |
| O=C1NCCn2c(-c3ccc(CNCc4cccs4)cc3)nc3cccc1c32 [Example 189, 1-(4-{[(Thiophen-2-ylmethyl)-amino]-methyl}-phenyl)-8,9-dihydro-7H-2,7,9a-triaza-benzo[cd]azulen-6-one] | 5.1 nM |
| CCCN(CCC)Cc1ccc(-c2nc3cccc4c3n2CCNC4=O)cc1 [Example 190, 1-(4-Dipropylaminomethyl-phenyl)-8,9-dihydro-7H-2,7,9a-triaza-benzo[cd]azulen-6-one] | 8.1 nM |
| O=C1NCCn2c(-c3ccc(CNCc4ccc5c(c4)OCO5)cc3)nc3cccc1c32 [Example 191, 1-(4-{[(Benzo[1,3]dioxol-5-ylmethyl)-amino]-methyl}-phenyl)-8,9-dihydro-7H-2,7,9a-triaza-benzo[cd]azulen-6-one] | 4.3 nM |
| O=C1NCCn2c(-c3ccc(CNC4CCc5ccccc54)cc3)nc3cccc1c32 (stereo not drawn) [Example 192, 1-[4-(Indan-1-ylaminomethyl)-phenyl]-8,9-dihydro-7H-2,7,9a-triaza-benzo[cd]azulen-6-one] | 4.5 nM |
| CCOC(=O)CCN(Cc1ccc(-c2nc3cccc4c3n2CCNC4=O)cc1)Cc1ccco1 [Example 193, 3-{[4-(6-oxo-6,7,8,9-Tetrahydro-2,7,9a-triaza-benzo[cd]azulen-1-yl)-benzyl]-furan-2-ylmethyl-amino}-propionic Acid Ethyl Ester] | 11 nM |
| CN1CCCC1CCNCc1ccc(-c2nc3cccc4c3n2CCNC4=O)cc1 (stereo not drawn) [Example 194, 1-(4-{[2-(1-Methyl-pyrrolidin-2-yl)-ethylamino]-methyl}-phenyl)-8,9-dihydro-7H-2,7,9a-triaza-benzo[cd]azulen-6-one] | 6.2 nM |
| Cc1ccc(CNCc2ccc(-c3nc4cccc5c4n3CCNC5=O)cc2)o1 [Example 195, 1-(4-{[(5-Methyl-furan-2-ylmethyl)-amino]-methyl}-phenyl)-8,9-dihydro-7H-2,7,9a-triaza-benzo[cd]azulen-6-one] | 4.7 nM and 5.9 nM |
| O=C1NCCn2c(-c3ccc(CNCc4ccccc4)cc3)nc3cccc1c32 [Example 196, 1-[4-(Benzylamino-methyl)-phenyl]-8,9-dihydro-7H-2,7,9a-triaza-benzo[cd]azulen-6-one] | 3.9 nM |
